Data from patent publication US10301304B2, “Selective inhibitor of phosphatidylinositol 3-kinase-gamma” (VERTEX PHARMACEUTICALS INCORPORATED, priority 2013, dated 2019).
Read-outs that look alike come from different tables or passages of the source.

What was measured:
CYP3A4 = CYP3A4 (Homo sapiens, UniProt P08684); assay: Time-dependent inhibition of CYP3A4, IC50 shift assay; type: in vitro ADME; set-up: evaluated in human liver microsomes using the IC50 shift assay; from tissue; host or cells: human liver microsomes; details: CYP3A4, preincubation 0 and 30 minutes with/without NADPH, human liver microsomes
Sequence of CYP3A4 (P08684 whole entry): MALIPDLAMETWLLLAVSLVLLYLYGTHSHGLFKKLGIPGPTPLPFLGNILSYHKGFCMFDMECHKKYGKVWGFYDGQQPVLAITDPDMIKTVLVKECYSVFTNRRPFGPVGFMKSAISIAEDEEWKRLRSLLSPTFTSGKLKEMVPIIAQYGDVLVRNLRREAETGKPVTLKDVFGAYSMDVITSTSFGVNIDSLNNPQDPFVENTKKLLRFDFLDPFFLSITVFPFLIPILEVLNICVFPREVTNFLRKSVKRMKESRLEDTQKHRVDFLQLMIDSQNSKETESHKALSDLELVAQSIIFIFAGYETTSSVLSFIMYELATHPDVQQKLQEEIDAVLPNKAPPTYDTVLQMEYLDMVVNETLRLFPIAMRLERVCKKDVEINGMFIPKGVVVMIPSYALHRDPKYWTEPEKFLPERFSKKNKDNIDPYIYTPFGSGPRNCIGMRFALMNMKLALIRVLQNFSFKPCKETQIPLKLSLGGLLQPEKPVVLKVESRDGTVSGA
Protocol: Time-dependent inhibition of CYP3A4 by Compound 1 also was evaluated in human liver microsomes using the IC50 shift assay. In the study, Compound 1 at 0.1 to 50 μM was preincubated with human liver microsomes in the presence and absence of NADPH for 0 and 30 minutes. Incubations were then diluted 10-fold with buffer and the remaining CYP3A4 (testosterone-6-beta-hydroxylase) activity was measured over a 10 minute period. There was no significant change (IC50 shift=1) in the IC50 of Compound 1 in the presence or absence of NADPH.

[1] = tested on: MCP-1 stimulated pAkt in THP-1 cells (PI3K-gamma); assay: MCP-1 Stimulated pAkt in THP-1 Cells; type: cell-based; details: Homo sapiens
Protocol: Chemokines like MCP-1 bind to their receptors resulting in activation of the PI3K-gamma signaling pathway. PI3K-gamma leads to generation of PIP3 and activation of downstream molecules like PDK-1 and Akt. Akt phosphorylation is a measure of PI3K activity in the cell. In this assay, THP-1 cells (human monocytic cell line) are starved overnight to deplete pAkt levels. Subsequent stimulation with MCP-1 for 3 minutes leads to PI3K-gamma-induced phoshorylation of Akt at the Threonin 308 and Serine 473 sites. Cells were fixed and stained for intracellular phosphoAKT (Ser 473) then analyzed using a BD FACSCalibur™ cytometer resulting in a measure of cellular PI3K-gamma activity.

[2] = tested on: buffy coat neutrophils and monocytes (PI3K-gamma); assay: Isolated Leukocyte oxidative burst; type: cell-based; details: absence of serum, read-out: IC50 Average ± Standard Deviation
Description: (§1) Neutrophils, monocytes and macrophages are key mediators of innate immunity. They release reactive oxygen species (ROS) as part of the innate immune inflammatory response. ROS production is induced by inflammatory mediators like chemokines, bacterial peptides and complement that recruit the innate immune cells to the site of inflammation. These inflammatory mediators trigger activation of PI3K-gamma and initiate a downstream signaling cascade that leads to the assembly of the complete NADPH oxidase complex at the plasma membrane generating ROS. PI3K-gamma functional activity was measured in whole blood and huffy coat neutrophils and monocytes via the generation of ROS. The cells are stimulated with TNF-alpha for 10 minutes, then with bacterial cell wall-derived chemotactic peptide, fMLP, for 20 minutes, and loaded with a non-fluorescent dye […] (DHR). ROS produced by the cells oxidizes DHR to fluorescent rhodamine causing an increase in fluorescent rhodamine content in the cells. PI3K-gamma functional activity is measured by the ability of neutrophils and monocytes to generate ROS following fMLP stimulation. Leukocytes and whole blood samples were analyzed on a BD FACSCalibur™ to quantitate cells positive for fluorescent rhodamine. Buffy coat cells generate IC50S in the absence of serum and whole blood assay generates IC50S in the presence of serum.

[3] = Intravenous bolus pharmacokinetics; type: in vivo; details: single IV bolus; for AUC / AUC(0-inf) / clearance / half-life / Vd: in vivo; for Vd: read-out: Vss
Description: Following intravenous administration of a single bolus dose, Compound 1 had low systemic clearance and a long half-life in all species tested. […] The volume of distribution was greater than the total body water, indicating distribution of Compound 1 to tissues.

MCF7 cells = assay: MCF-7 Proliferation Assay; type: cell-based, human; details: for IC50: Homo sapiens
Protocol: The PI3K-Akt signaling pathway regulates many normal cellular processes including cell proliferation, survival and growth that are critical for tumorigenesis. Dysregulation of the PI3K signaling pathway occurs commonly in human cancers. MCF7 is a human breast carcinoma cell line that has an activating E545K PI3Kα heterozygous mutation in the helical domain of the p110α protein leading to hyperactivity of the PI3K-alpha pathway. […] Compounds are added to MCF7 cells, cell proliferation/viability is measured 96 hours post compound treatment using cell titer-glo to measure the ATP content of the cells in the well. Lack of or reduced proliferation is a measure of the extent of PI3K-alpha inhibition.

[4] = tested on: whole blood neutrophils and monocytes (PI3K-gamma); assay: Whole Blood oxidative burst; type: cell-based; details: presence of serum, read-out: IC50 Average ± Standard Deviation
Description: as §1

[5] = biological target: T1, pregnane-X receptor (PXR) (Homo sapiens, UniProt O75469); assay: PXR activation in DPX2 cells; type: in vitro ADME
T1 construct: expressed in transfected cells; host or cells: DPX2 cells (human hepatoma cell line)
T1 sequence (O75469 whole entry): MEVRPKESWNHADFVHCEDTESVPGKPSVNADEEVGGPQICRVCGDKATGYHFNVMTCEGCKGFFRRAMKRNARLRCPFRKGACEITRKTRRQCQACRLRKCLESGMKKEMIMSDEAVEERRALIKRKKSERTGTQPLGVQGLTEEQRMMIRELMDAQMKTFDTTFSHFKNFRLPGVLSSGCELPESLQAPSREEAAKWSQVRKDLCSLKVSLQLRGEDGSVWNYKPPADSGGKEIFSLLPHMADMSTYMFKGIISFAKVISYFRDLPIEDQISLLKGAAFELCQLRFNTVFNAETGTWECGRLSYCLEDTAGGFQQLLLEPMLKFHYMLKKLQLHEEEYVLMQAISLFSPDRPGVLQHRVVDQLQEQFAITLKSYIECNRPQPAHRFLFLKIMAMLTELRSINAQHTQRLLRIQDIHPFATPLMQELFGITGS
Protocol: The potential of Compound 1 to activate the pregnane-X receptor (PXR) was evaluated over a range of six concentrations from 0.1-30 μM in DPX2 cells, a human hepatoma cell line that is stably overexpressed with the human PXR gene and a luciferase reporter gene linked to two promoters in the human CYP3A4 gene. Rifampicin was used as a positive control.

[6] = Oral pharmacokinetics / bioavailability; type: in vivo, Rat
Description: The bioavailability in monkey (greater than 100%) may be explained by the tenfold difference between the IV and oral doses. Compound 1 was rapidly absorbed in all species, with maximum systemic concentration observed within approximately one to three hours of dosing.

[7] = in vivo, Rat, single oral, 1 mg/kg nominal, spray-dried dispersion

Cc1cc(-c2cncc([C@@H](O)C(F)(F)F)c2)nc2c1C(=O)N(c1cnn(CC(F)F)c1)C2(C)C [Compound 1, (R)-6-(1-(2,2-difluoroethyl)-1H-pyrazol-4-yl)-4,7,7-trimethyl-2-(5-(2,2,2-trifluoro-1-hydroxyethyl)pyridin-3-yl)-6,7-dihydro-5H-pyrrolo[3,4-b]pyridin-5-one] gave an IC50 shift (CYP3A4) of 1, an IC50 ([1]; THP-1, summary of cell assays, read-out: potency in PI3K-gamma associated cell assays) of 250 nM and an IC50 ([1]; THP-1/MCP-1/pAkt, PI3K-gamma dependent, read-out: IC50 Average ± Standard Deviation) of 240 ± 70 nM. For the same molecule, the IC50 [2] was 220 nM, the “% HBF (hepatic blood flow)” value ([3]; Dog, 0.5 mg/kg nominal) was ~13% and the DN_AUCINF ([3]; Dog, 0.5 mg/kg nominal) was 4000 ng·h/mL. The “% HBF (hepatic blood flow)” value ([3]; Monkey, 0.5 mg/kg nominal) was ~26%, the DN_AUCINF ([3]; Monkey, 0.5 mg/kg nominal) was 1500 ng·h/mL and the DN_AUCINF ([3]; Mouse, 0.45 mg/kg nominal) was 3400 ng·h/mL. It also gave an AUC ([3]; Dog, 0.5 mg/kg nominal) of 1900 ng·h/mL, an AUC(0-inf) ([3]; Dog, 0.5 mg/kg nominal) of 2000 ng·h/mL and a clearance ([3]; Dog, 0.5 mg/kg nominal) of 5.4 mL/min/kg. For the same molecule, the half-life ([3]; Dog, 0.5 mg/kg nominal) was 10.7 h, the Vd ([3]; Dog, 0.5 mg/kg nominal) was 3.9 L/kg and the AUC ([3]; Monkey, 0.5 mg/kg nominal) was 700 ng·h/mL. The AUC(0-inf) ([3]; Monkey, 0.5 mg/kg nominal) was 740 ng·h/mL, the clearance ([3]; Monkey, 0.5 mg/kg nominal) was 11.5 mL/min/kg and the half-life ([3]; Monkey, 0.5 mg/kg nominal) was 6.6 h. It also gave a Vd ([3]; Monkey, 0.5 mg/kg nominal) of 3.3 L/kg, an AUC ([3]; Mouse, 0.45 mg/kg nominal) of 1090 ng·h/mL and an AUC(0-inf) ([3]; Mouse, 0.45 mg/kg nominal) of 1530 ng·h/mL. The clearance ([3]; Mouse, 0.45 mg/kg nominal) was 4.9 mL/min/kg, the half-life ([3]; Mouse, 0.45 mg/kg nominal) was 4.3 h and the Vd ([3]; Mouse, 0.45 mg/kg nominal) was 1.8 L/kg. The IC50 (MCF7 cells; MCF7, 96 h, MCF7 Proliferation, 96 hours, PI3K-alpha dependent, read-out: IC50 Avg +/− SD) was > 17000 nM, the IC50 (MCF7 cells; MCF7, MCF7 Proliferation, footnote **, read-out: Individual assay data (IC50)) was 15700 nM and the “selectivity over PI3K-alpha” value (MCF7 cells; MCF7 proliferation) was > 67 fold. The IC50 [4] was 570 nM, the “PXR activation, response relative to positive control” value ([5]; 0.1-30 μM, Rifampicin positive control) was 5% and the EC50 ([5]; PXR activation) was > 30000 nM. It also gave a DN_AUCINF ([6]; Rat, single oral, 1 mg/kg nominal, spray-dried dispersion) of 5140 ng·h/mL, an F ([6]; Rat, single oral, 1 mg/kg nominal, spray-dried dispersion, 1 mg/kg) of 84% and an AUC(0-inf) [6, 7] of 5110 ng·h/mL. The MRT [6, 7] was 18.3 h, the Tmax [6, 7] was 3.33 h and the half-life [6, 7] was 12.5 h. The AUC ([6]; in vivo, Rat, single oral, 1 mg/kg nominal, spray-dried dispersion, read-out: AUCALL) was 5000 ng·h/mL, the Cmax ([6]; in vivo, Rat, single oral, 1 mg/kg nominal, spray-dried dispersion, read-out: Cmax) was 260 ng/mL and the AUC ([6]; rat, in vivo, Oral gavage, 3 mg/kg nominal dose, vehicle 0.2%MC/1%SLS, read-out: Rat PO AUC) was 18000 ng·h/mL. The Cmax ([6]; rat, in vivo, Oral gavage, 3 mg/kg nominal dose, vehicle 0.2%MC/1%SLS, read-out: Rat PO Cmax) was 1000 ng/mL.
